{"source": "patent US11661439B2", "about": "“Peptide hydrogels and use thereof” (The United States of America, as represented by the …, priority 2017, dated 2023)", "key": {"[1]": {"test": "TEM analysis of peptide fibrils", "type": "physicochemical", "conditions": "30 independent measurements", "protocol": "FIG. 4. Fibril visualization of β-hairpin peptide hydrogels. Transmission Electron Microscopy (TEM) images of peptide fibrils and frequency distributions determined from 30 independent measurements (scale bar=100 nm).\nTransmission electron microscopy (TEM) analysis. The hydrogel nanostructure of the peptide gels was observed using a Hitachi H-7650 transmission electron microscope at a voltage of 80 kV. A 1 wt % solution of peptide and an equal volume of buffer (50 mM HEPES containing 300 mM NaCl, pH 7.4) was mixed and incubated overnight at 37° C. to allow for gelation. The next day, samples for TEM analysis were prepared by suspending 5 μL of the resulting peptide gel in 195 μL of water to yield a 40-fold dilution. Small amounts (5 μL) of each diluted gel solution were applied to separate carbon coated copper grids. After 1 min, the grid was washed with water. Then, a 1 w/v % uranyl acetate aqueous solution was placed on each grid for negative staining. Excess staining solution was blotted away, left to air dry, and the grids were imaged immediately."}, "[2]": {"system": "human dermal fibroblasts (HDFs)", "test": "2D cell culture of HDFs on gel surfaces", "type": "cell-based", "conditions": "Essential 8 Medium or serum-free DMEM", "protocol": "2D cell culture on peptide gels. Peptides were initially dissolved in water at 1 wt % on ice and mixed with an equal volume of ice-cold 2×HEPES buffer (50 mM HEPES, 300 mM NaCl, pH 7.4). The peptide solution (50 μL per well) was transferred to a non-tissue culture treated 96-well plates and incubated at 37° C. to initiate gelation. After 1 hour, HDFs (2×10^4 cells per 200 μL, per well) in serum-free DMEM, 10% FBS supplemented DMEM, or Essential 8 Medium (Thermo Fisher Scientific) were seeded on the peptide gels and cultured for 4 days. Bovine type I collagen gels (0.3 wt %, 50 μL per well) were prepared in 96-well plates following manufacturer's instructions.\nCell viability assay. Cell viability was evaluated by live and dead cell staining after 2D and 3D cell culture. Serum-free DMEM containing 1 μM calcein-AM and 2 μM ethidium homodimer-1 was added to the cells (200 μL per well for 2D culture and 500 μL each to the top and bottom of the gels for 3D culture). After incubation at 37° C. for 30 min, live and dead cells were visualized using EVOS FL Auto Cell Imaging System (Thermo Fisher Scientific). For the pseudo-colored composite image of varying heights of encapsulated cells, images of the live-stained cells were captured every 5 μm of height. Then Z-stack images for each 100 μm were flattened using the EVOS software, and the flattened images were pseudo-colored and merged using ImageJ.\nCell proliferation assay. A cell proliferation assay was performed using Cell Counting Kit-8 (CCK-8, Dojindo Molecular Technologies) for 2D and 3D cell culture. Serum-free DMEM containing 10% CCK-8 was added to the gels (200 μL per well for 2D culture; 500 μL to the top of the gels for 3D culture) and incubated for 2 hours at 37° C. Subsequently, media were transferred to 96-well plates (150 μL per well) and their absorbance measured at 450 nm relative to control viabilities from day 0 for 2D cell culture and day 1 for 3D cell culture. Experiments were performed in triplicate.\nCytoskeleton staining. For 2D cell culture, the peptide and collagen gels (70 μL) were prepared as described above on the glass bottom of 35 mm dishes (7 mm glass diameter, MatTek). HDFs in Essential 8 Medium (1.5×10^5 cells per 3 mL) were added to the dishes and incubated at 37° C. for 24 hours. Cells were fixed and permeabilized with 4% paraformaldehyde and 0.1% Triton X-100 in PBS for 15 min, and then blocked with 1% BSA in PBS. Cells were incubated with anti-vinculin antibody (hVIN-1, Sigma) for 1 hour at room temperature. Then, a goat anti-mouse IgG (H+L) cross-adsorbed secondary antibody, Rhodamine Red-X (2 μg mL^−1, Thermo Fisher Scientific), Alexa Fluor 488 phalloidin (5 units mL^−1, Thermo Fisher Scientific), and Hoechst 33342 (5 μg mL^−1, Invitrogen) in PBS were added to the dishes and incubated for 1 hour at room temperature. After washing, cells were visualized using an EVOS FL Auto Cell Imaging System."}, "[3]": {"test": "Oscillatory rheology of protein-loaded AcVES3 hydrogels", "type": "physicochemical", "conditions": "at 60 min; 0.5 wt % AcVES3 hydrogel loaded with protein", "protocol": "FIGS. 12A and 12B. […] (12A) Dynamic time sweep experiments. Hydrogels were set for 60 min, followed by 30 s of high strain, then a recovery period of 60 min. (12B) Storage moduli after 60 min. Bars outlined in black represent post shear storage moduli after 60 min recovery.\nOscillatory Rheology. Rheological assessment was conducted on a […] AR-G2 rheometer using a 25 mm stainless steel parallel geometry. A representative set of proteins was used to determine whether the fusion domain affected the material properties of the AcVES3 hydrogels. […] This solution was immediately applied to the center of the plate and the upper geometry was lowered to a gap height of […]. The temperature was increased from 5° C. to 37° C. over 100 s at a constant angular frequency of 6 rad s^−1 and 0.2% strain. The storage and loss moduli were monitored for 60 min at a constant angular frequency of 6 rad s^−1 and 0.2% strain at 37° C. […] The moduli were monitored for 60 min (6 rad s^−1, 0.2% strain, 37° C.), followed by the application of 1000% strain for 30 s to shear the gel, after which the strain was reduced to 0.2% and the gel was allowed to recover for 60 min (6 rad s^−1, 0.2% strain)."}}}
{"substance": "Ac-VEVSVSVEV^DPPTEVSVEVEV-NH2 [AcVES3]", "values": [{"measurement": "average fibril width", "setting": "[1]", "value": "3.1±0.4", "unit": "nm"}, {"measurement": "cell adhesion of HDFs on gel surface", "setting": "[2]; day 1", "value": "adhered"}, {"measurement": "cell adhesion of HDFs on gel surface", "setting": "[2]; day 4", "value": "most of the cells detached"}]}
{"substance": "EGFP: fluorescent protein EGFP, SEQ ID NO: 19, model heterologous protein with net negative charge", "values": [{"measurement": "storage moduli", "setting": "[3]", "value": "~1000", "unit": "Pa"}]}
